According to patent US5668134A, “Method for preventing or reducing photosensitivity and/or phototoxicity reactions to medications” (priority 1994, dated 1997):
“And” between values parts separate entries of the source, which are not always exact repeats. Equal values may be shown once. Where a name gives a salt, the structure may show the parent alone.

Key:
[1] = Solubility of lomefloxacin HCl in urine; format: physicochemical; conditions: human
Protocol: Following a single 400 mg dose of lomefloxacin HCl, the solubility of lomefloxacin HCl in urine usually exceeded its peak urinary concentration 2 to 6 fold.

[2] = Pharmacokinetics in renally impaired patients; format: in vivo, human; conditions: single doses
[3] = Physicochemical properties of lomefloxacin HCl
healthy male volunteers = conditions: lomefloxacin 400 mg BID, ciprofloxacin 750 mg BID, 14 days, UVA and UVA/UVB
Protocol: This study was a single center, open label, multiple does, parallel, randomized study in healthy male volunteers.
Drug administration began on day three. Single dermatological sites were chosen on each of the subjects to be the site which was to be evaluated over time. Twenty joules of radiation were administered to these sites on day 1, day 6 and day 16. Also, graded UVA-UVB exposure was performed on days 2, 7 and 16. The dermatological responses were scored at 1, 24 and 48 hours after each UVA exposure and at 24 hours after the combined UVA-UVB exposure. The definitions which were employed in interpreting this study were that photosensitivity was to be assessed by exposure duration associated with the smallest dermatological response score above zero, which was defined as the minimal erythrogenic dose after the UVA-UVB exposure. The photosensitivity and/or phototoxicity reaction was taken by definition to be an increase of equal to or greater than 1 unit in what was defined as a dermatological response over baseline values after the UVA exposure.

Escherichia coli = experiment: Activity in vitro and in clinical infections; format: cell-based
[4] = system: Moraxella (Branhamella) catarrhalis; experiment: Activity in vitro and in clinical infections; format: cell-based
skin = conditions: humans and animals; cited from earlier work
[5] = Pharmacokinetics in patients with cirrhosis; format: in vivo, human; conditions: 12 patients with cirrhosis, 400 mg single dose
[6] = system: uncomplicated urinary tract infection; experiment: Example 4: evening dosing in uncomplicated urinary tract infection; format: in vivo, human; conditions: 200 mg at night for 3 nights
Protocol: Patients with uncomplicated urinary tract infection were randomized to receive lomefloxacin HCl 200 mg taken at night for 3 nights and trimethoprim in a double-blind study.

[7] = system: skin of healthy volunteers; conditions: in vivo
From the text: (§1) The relationship between plasma concentration at time of irradiation and delayed MEDUVA was explored using regression analysis by testing the equality of the slopes of the regression of delayed MEDUVA on plasma concentration, obtaining estimates of the parameters of the regression line, and determining the correlation coefficient.

Proteus mirabills = experiment: Activity in vitro and in clinical infections; format: cell-based
Haemophilus influenzae = experiment: Activity in vitro and in clinical infections; format: cell-based
[8] = Example 1: general pharmacokinetics in volunteers; format: in vivo, human
Protocol: In 6 fasting healthy male volunteers, approximately 95% to 98% of a single oral dose of lomefloxacin HCl was absorbed. […] Mean plasma concentration increased proportionally between 100 and 400 mg as shown below.
In 6 healthy male volunteers administered 400 mg of lomefloxacin HCl on an empty stomach q.d. for 7 days, the following mean pharmacokinetic parameter values were obtained: [formula]
The elimination half-life in 8 subjects with normal renal function was approximately 8 hours. At 24 hours post dose, subjects with normal renal function receiving single doses of 200 or 400 mg lomefloxacin HCl had mean plasma lomefloxacin HCl concentrations of 0.10 and 0.24 μg/ml, respectively. Steady-state concentrations were achieved within 48 hours of initiating therapy with once-a-day dosing.
Approximately 65% of an orally administered dose of lomefloxacin HCl was excreted in the urine as unchanged drug in patients with normal renal function. Following a 400 mg dose of lomefloxacin HCl administered q.d. for 7 days, the mean urine concentration was in excess of 300 μg/ml 4 hours post dose. The mean urine concentration exceeded 35 μg/ml for at least 24 hours after dosing.
The urinary excretion of lomefloxacin HCl was virtually complete within 72 hours after cessation of dosing, with approximately 65% of the dose being recovered as parent drug and 9% as its glucuronide metabolite.

[9] = system: skin of healthy volunteers; experiment: Example 5: regression of delayed MEDUVA on plasma concentration
From the text: as §1

Pseudomonas aeruginosa = experiment: Activity in vitro and in clinical infections; format: cell-based
[10] = Pharmacokinetics in the geriatric population; format: in vivo, human
From the text: This slower elimination most likely reflects the decreased renal function normally observed in the geriatric population.

[11] = system: gram-negative and gram-positive organisms; experiment: Bactericidal activity in vitro, MBC relative to MIC; format: cell-based
[12] = system: skin of healthy volunteers; experiment: Example 5: severity of radiation-induced photoreactions (edema or blisters)
Protocol: The number of skin patches with edema, or local swelling of the skin surface, were also counted. MEDs were measured separately for UVA and UVB radiation, and for UVA radiation alone. The baseline MED was defined in the manner described hereinabove. The 24 hour evaluation was allowed to be performed in the morning of Study Day 1. Severity of reactions causing edema and/or blisters were graded under the following grading system:
Severity was assessed by comparing the numbers of subjects with responses graded as 2 (edema) or 3 (blisters).

[13] = in vivo
Serum protein binding = format: in vitro ADME
[14] = system: Staphylococcus saprophyticus; experiment: Activity in vitro and in clinical infections; format: cell-based
[15] = UVA & UVB, a.m., 0 h post-radiation
[16] = UVA & UVB, a.m., 3 h post-radiation
[17] = UVA & UVB, a.m., 6 h post-radiation
[18] = UVA & UVB, a.m., 24 h post-radiation
[19] = UVA & UVB, a.m., 48 h post-radiation
[20] = UVA & UVB, a.m., 72 h post-radiation
[21] = UVA & UVB, p.m., 0 h post-radiation
[22] = UVA & UVB, p.m., 3 h post-radiation
[23] = UVA & UVB, p.m., 6 h post-radiation
[24] = UVA & UVB, p.m., 24 h post-radiation
[25] = UVA & UVB, p.m., 48 h post-radiation
[26] = UVA & UVB, p.m., 72 h post-radiation

CCn1cc(C(=O)O)c(=O)c2cc(F)c(N3CCNC(C)C3)c(F)c21 (racemic) [lomefloxacin HCl, monohydrochloride salt of (±)-1-ethyl-6,8-difluoro-1,4-dihydro-7-(3-methyl-1-piperazinyl)-4-oxo-3-quinolinecarboxylic acid]
solubility ([1]; pH 5.2): 7800 µg/mL | solubility ([1]; pH 6.5): 2400 µg/mL | solubility ([1]; pH 8.12): 3030 µg/mL | peak concentrations versus renal function [2]: not affected by the degree of renal function | solubility in alcohol [3]: practically insoluble in alcohol | solubility in water [3]: slightly soluble in water | rate of photosensitivity reactions (healthy male volunteers): 64% | activity against most strains (Escherichia coli): active against most strains | activity against most strains [4]: active against most strains | photoreactions of quinolones (skin): dose-dependent, drug-induced, UVA required photosensitivity reaction | changes in rate or extent of exposure (Cmax, Tmax, t1/2 or AUC) [5]: no significant changes | overall incidence of adverse events [6]: 18% | photosensitivity reactions [6]: no photosensitivity reactions reported | clinical success in evaluable patients ([6]; 7-9 days posttreatment): 98.1% | reduction in Minimum Erythema Dose from baseline at high plasma concentration [7]: marked reduction in Minimum Erythema Dose from baseline | reduction in Minimum Erythema Dose from baseline at low plasma concentration [7]: no reduction in Minimum Erythema Dose from baseline | activity against most strains (Proteus mirabills): active against most strains | activity against most strains (Haemophilus influenzae): active against most strains | glucuronide metabolite recovered in urine ([8]; human, in vivo): 9% | time to steady-state concentrations ([8]; human, in vivo): ≤ 48 h | time to virtually complete urinary excretion ([8]; human, in vivo): ≤ 72 h | CL renal ([8]; human, in vivo, po): 145 mL/min | Fa ([8]; human, in vivo, po): 95 to 98% | Tmax ([8]; human, in vivo, po): 0.8 to 1.4 h | half-life ([8]; human, in vivo, po): ~8 h | drug accumulation ([8]; single daily dosing, normal renal function): no drug accumulation | correlation coefficient, plasma concentration vs delayed MEDUVA ([9]; in vivo): -0.72 | slope of regression of delayed MEDUVA on plasma concentration ([9]; p<0.001): -4.99 | activity against most strains (Pseudomonas aeruginosa): active against most strains | increase of AUC ([10]; elderly vs younger subjects): approximately 33% | reduction of plasma clearance ([10]; elderly vs younger subjects): approximately 25% | half-life ([10]; human, in vivo, 16 elderly volunteers, single 400 mg dose): 8 h | Cmax ([10]; human, plasma, 16 elderly volunteers, single 400 mg dose, read-out: peak plasma concentration, mean): 4200 ng/mL | drug absorption in the elderly ([10]; single 400 mg dose): unaffected in the elderly | MBC relative to MIC ([11]; generally, except staphylococci): ≤ 2 factor | antibacterial activity ([11]; in vitro): bactericidal agent with in vitro activity against a wide range of gram-negative and gram-positive organisms | NUMBER OF SUBJECTS WITH SCORE >= 2, COUNT [12, 15]: 0 subjects | SUBJECTS WITH SCORE >= 2, PERCENT [12, 15]: 0.00% | NUMBER OF SUBJECTS WITH SCORE >= 2, COUNT [12, 16]: 0 subjects | SUBJECTS WITH SCORE >= 2, PERCENT [12, 16]: 0.00% | NUMBER OF SUBJECTS WITH SCORE >= 2, COUNT [12, 17]: 2 subjects | SUBJECTS WITH SCORE >= 2, PERCENT [12, 17]: 15.38% | NUMBER OF SUBJECTS WITH SCORE >= 2, COUNT [12, 18]: 0 subjects | SUBJECTS WITH SCORE >= 2, PERCENT [12, 18]: 0.00% | NUMBER OF SUBJECTS WITH SCORE >= 2, COUNT [12, 19]: 0 subjects | SUBJECTS WITH SCORE >= 2, PERCENT [12, 19]: 0.00% | NUMBER OF SUBJECTS WITH SCORE >= 2, COUNT [12, 20]: 0 subjects | SUBJECTS WITH SCORE >= 2, PERCENT [12, 20]: 0.00% | NUMBER OF SUBJECTS WITH SCORE >= 2, COUNT [12, 21]: 0 subjects | SUBJECTS WITH SCORE >= 2, PERCENT [12, 21]: 0.00% | NUMBER OF SUBJECTS WITH SCORE >= 2, COUNT [12, 22]: 0 subjects | SUBJECTS WITH SCORE >= 2, PERCENT [12, 22]: 0.00% | NUMBER OF SUBJECTS WITH SCORE >= 2, COUNT [12, 23]: 0 subjects | SUBJECTS WITH SCORE >= 2, PERCENT [12, 23]: 0.00% | NUMBER OF SUBJECTS WITH SCORE >= 2, COUNT [12, 24]: 1 subjects | SUBJECTS WITH SCORE >= 2, PERCENT [12, 24]: 7.69% | NUMBER OF SUBJECTS WITH SCORE >= 2, COUNT [12, 25]: 0 subjects | SUBJECTS WITH SCORE >= 2, PERCENT [12, 25]: 0.00% | NUMBER OF SUBJECTS WITH SCORE >= 2, COUNT [12, 26]: 0 subjects | SUBJECTS WITH SCORE >= 2, PERCENT [12, 26]: 0.00% | NUMBER OF SUBJECTS WITH SCORE >= 2, COUNT ([12]; UVA, a.m., 0 h post-radiation): 1 subjects | SUBJECTS WITH SCORE >= 2, PERCENT ([12]; UVA, a.m., 0 h post-radiation): 7.69% | NUMBER OF SUBJECTS WITH SCORE >= 2, COUNT ([12]; UVA, a.m., 3 h post-radiation): 6 subjects | SUBJECTS WITH SCORE >= 2, PERCENT ([12]; UVA, a.m., 3 h post-radiation): 46.15% | NUMBER OF SUBJECTS WITH SCORE >= 2, COUNT ([12]; UVA, a.m., 6 h post-radiation): 9 subjects | SUBJECTS WITH SCORE >= 2, PERCENT ([12]; UVA, a.m., 6 h post-radiation): 69.23% and 69% | NUMBER OF SUBJECTS WITH SCORE >= 2, COUNT ([12]; UVA, a.m., 24 h post-radiation): 5 subjects | SUBJECTS WITH SCORE >= 2, PERCENT ([12]; UVA, a.m., 24 h post-radiation): 38.46% | NUMBER OF SUBJECTS WITH SCORE >= 2, COUNT ([12]; UVA, a.m., 48 h post-radiation): 2 subjects | SUBJECTS WITH SCORE >= 2, PERCENT ([12]; UVA, a.m., 48 h post-radiation): 15.38% | NUMBER OF SUBJECTS WITH SCORE >= 2, COUNT ([12]; UVA, a.m., 72 h post-radiation): 0 subjects | SUBJECTS WITH SCORE >= 2, PERCENT ([12]; UVA, a.m., 72 h post-radiation): 0.00% | NUMBER OF SUBJECTS WITH SCORE >= 2, COUNT ([12]; UVA, p.m., 0 h post-radiation): 0 subjects | SUBJECTS WITH SCORE >= 2, PERCENT ([12]; UVA, p.m., 0 h post-radiation): 0.00% | NUMBER OF SUBJECTS WITH SCORE >= 2, COUNT ([12]; UVA, p.m., 3 h post-radiation): 0 subjects | SUBJECTS WITH SCORE >= 2, PERCENT ([12]; UVA, p.m., 3 h post-radiation): 0.00% | NUMBER OF SUBJECTS WITH SCORE >= 2, COUNT ([12]; UVA, p.m., 6 h post-radiation): 0 subjects | SUBJECTS WITH SCORE >= 2, PERCENT ([12]; UVA, p.m., 6 h post-radiation): 0.00% | NUMBER OF SUBJECTS WITH SCORE >= 2, COUNT ([12]; UVA, p.m., 24 h post-radiation): 0 subjects | SUBJECTS WITH SCORE >= 2, PERCENT ([12]; UVA, p.m., 24 h post-radiation): 0.00% | NUMBER OF SUBJECTS WITH SCORE >= 2, COUNT ([12]; UVA, p.m., 48 h post-radiation): 0 subjects | SUBJECTS WITH SCORE >= 2, PERCENT ([12]; UVA, p.m., 48 h post-radiation): 0.00% | NUMBER OF SUBJECTS WITH SCORE >= 2, COUNT ([12]; UVA, p.m., 72 h post-radiation): 0 subjects | SUBJECTS WITH SCORE >= 2, PERCENT ([12]; UVA, p.m., 72 h post-radiation): 0.00% | time of peak plasma concentration following dosing [13]: approximately two | fraction unbound (Serum protein binding): ~0.9 | activity against most strains [14]: active against most strains
